The results in this text go back to ChEMBL document CHEMBL3400001, “Tricyclic 1,5-naphthyridinone oxabicyclooctane-linked novel bacterial topoisomerase inhibitors as broad-spectrum antibacterial agents-SAR of left-hand-side moiety (Part-2)” (Bioorg Med Chem Lett, 2015).

The subject of one assay is Escherichia coli. Briefly: Antimicrobial activity against Escherichia coli ATCC 25922 by micro broth dilution or agar based method. The assay is classed as functional.
The subject of a further assay is Acinetobacter baumannii. Kind of assay: Antimicrobial activity against Acinetobacter baumannii IID876 by micro broth dilution or agar based method. Type of assay: functional. (In broth dilution the organism is exposed to a series of concentrations in liquid medium.)
A further assay deals with Pseudomonas aeruginosa. Kind of assay: Antimicrobial activity against Pseudomonas aeruginosa PAO1 by micro broth dilution or agar based method. The assay is classed as functional.
The test system of a further assay is Haemophilus influenzae. Kind of assay: Antimicrobial activity against Haemophilus influenzae ATCC 49247 by micro broth dilution or agar based method. Type of assay: functional.
The test system of another assay is Moraxella catarrhalis. Kind of assay: Antimicrobial activity against Moraxella catarrhalis ATCC 25238 by micro broth dilution or agar based method. Type of assay: functional.
Assay [1] deals with T1, Voltage-gated inwardly rectifying potassium channel KCNH2 (Homo sapiens, UniProt Q12809). Kind of assay: Inhibition of human ERG by MK499 binding assay.
T1 sequence (Q12809 whole entry): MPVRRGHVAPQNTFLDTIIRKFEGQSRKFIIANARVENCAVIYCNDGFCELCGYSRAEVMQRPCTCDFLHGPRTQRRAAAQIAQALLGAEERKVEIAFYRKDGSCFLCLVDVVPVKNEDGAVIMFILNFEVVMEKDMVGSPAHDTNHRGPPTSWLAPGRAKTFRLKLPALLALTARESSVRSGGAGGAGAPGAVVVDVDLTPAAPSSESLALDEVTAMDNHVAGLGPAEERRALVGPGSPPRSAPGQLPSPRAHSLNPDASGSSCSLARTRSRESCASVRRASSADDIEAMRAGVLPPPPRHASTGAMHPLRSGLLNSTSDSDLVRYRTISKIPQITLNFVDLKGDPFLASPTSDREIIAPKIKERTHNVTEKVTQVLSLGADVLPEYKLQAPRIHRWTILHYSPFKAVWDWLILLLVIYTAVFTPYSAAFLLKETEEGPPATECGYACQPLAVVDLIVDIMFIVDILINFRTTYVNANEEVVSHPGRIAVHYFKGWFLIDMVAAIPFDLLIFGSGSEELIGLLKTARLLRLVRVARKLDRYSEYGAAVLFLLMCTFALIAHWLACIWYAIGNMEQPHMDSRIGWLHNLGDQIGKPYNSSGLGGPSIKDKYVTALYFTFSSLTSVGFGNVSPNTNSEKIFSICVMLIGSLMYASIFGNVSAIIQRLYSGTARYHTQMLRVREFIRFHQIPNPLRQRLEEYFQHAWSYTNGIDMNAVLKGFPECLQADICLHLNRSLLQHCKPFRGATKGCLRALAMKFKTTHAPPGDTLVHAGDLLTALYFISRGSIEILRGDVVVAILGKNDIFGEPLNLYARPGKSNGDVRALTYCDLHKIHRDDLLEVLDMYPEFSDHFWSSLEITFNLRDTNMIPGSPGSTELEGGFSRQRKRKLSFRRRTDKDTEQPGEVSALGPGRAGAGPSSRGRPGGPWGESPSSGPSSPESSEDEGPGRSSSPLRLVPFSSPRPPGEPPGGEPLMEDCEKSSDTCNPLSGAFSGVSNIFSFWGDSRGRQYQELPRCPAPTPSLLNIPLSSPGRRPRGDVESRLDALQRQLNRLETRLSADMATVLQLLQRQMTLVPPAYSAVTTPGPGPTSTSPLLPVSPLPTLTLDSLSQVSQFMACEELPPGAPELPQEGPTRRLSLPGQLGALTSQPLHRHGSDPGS
Assay [2] concerns Staphylococcus aureus. Briefly: Ratio of MIC for quinolone-resistant Staphylococcus aureus MS5935 to MIC for quinolone-[…]. Type of assay: functional.
In assay [3] the test system is Staphylococcus aureus. Briefly: Antimicrobial activity against Staphylococcus aureus Smith by micro broth dilution or agar based method. Type of assay: functional.
For the next assay, the system named is Streptococcus pneumoniae. Kind of assay: Antimicrobial activity against Streptococcus pneumoniae IID554 by micro broth dilution or agar based method. The assay is classed as functional.
In the next assay the test system is Enterococcus faecalis. Briefly: Antimicrobial activity against Enterococcus faecalis ATCC 29212 MB by micro broth dilution or agar based method. The assay is classed as functional.
The next assay deals with Enterococcus faecium. Briefly: Antimicrobial activity against vancomycin-resistant Enterococcus faecium A2373 expressing VanA by micro broth dilution or agar based method. Type of assay: functional.
Assay [4] deals with T1, Voltage-gated inwardly rectifying potassium channel KCNH2. Briefly: Inhibition of human ERG expressed in CHO cells by Patch express assay. The assay is classed as cell-based.
[5] abbreviates: Escherichia coli, ATCC 25922, read-out: MIC.
Setting [6] is: Acinetobacter baumannii, IID876, read-out: MIC.
Setting [7] is: Pseudomonas aeruginosa, PAO1, read-out: MIC.
Setting [8] is: Staphylococcus aureus, Smith, read-out: MIC.
[9] abbreviates: Streptococcus pneumoniae, IID554, read-out: MIC.
Where [10] appears, read: Enterococcus faecalis, ATCC 29212 MB, read-out: MIC.
Setting [11] is: Enterococcus faecium, A2373, read-out: MIC.

Molecules are shown by their SMILES. Values after ≈ are worked out from the molar mass of the structure shown.

`Cc1cc(=O)n2c3c(c(F)cnc13)[C@](O)(CC13CCC(NCc4ccc5c(n4)NC(=O)CO5)(CC1)CO3)C2`: the MIC in the assay on Escherichia coli (setting [5]) was found to be 8 µg/mL (≈ 15.3 µM); with Acinetobacter baumannii (setting [6]) it was 0.5 µg/mL (≈ 0.959 µM); in the assay with Pseudomonas aeruginosa (setting [7]) it was 32 µg/mL (≈ 61.4 µM); with Haemophilus influenzae it was 4 µg/mL (≈ 7.67 µM); with Moraxella catarrhalis, 0.5 µg/mL (≈ 0.959 µM); with Staphylococcus aureus [3] (setting [8]), 0.5 µg/mL (≈ 0.959 µM). Besides, the MIC in the assay with Streptococcus pneumoniae (setting [9]) is 1 µg/mL (≈ 1.92 µM); with Enterococcus faecalis (setting [10]) it was 4 µg/mL (≈ 7.67 µM); in the assay with Enterococcus faecium (setting [11]) it was 8 µg/mL (≈ 15.3 µM). For the same molecule, in assay [1], the IC50 – broadly, the concentration that inhibits the measured activity by half – was over 60 µM. Further, the Ratio in the assay on Staphylococcus aureus [2] is under 4.
`O=C1COc2ccc(CNC34CCC(C[C@]5(O)CN6C(=O)CCc7ncc(F)c5c76)(CC3)OC4)nc2N1`: the MIC is 32 µg/mL (≈ 62.8 µM) with Escherichia coli (setting [5]); 32 µg/mL (≈ 62.8 µM) in the assay on Acinetobacter baumannii (setting [6]); 32 µg/mL (≈ 62.8 µM) in the assay on Pseudomonas aeruginosa (setting [7]); 8 µg/mL (≈ 15.7 µM) in the assay on Staphylococcus aureus [3] (setting [8]); 8 µg/mL (≈ 15.7 µM) with Streptococcus pneumoniae (setting [9]); 16 µg/mL (≈ 31.4 µM) in the assay on Enterococcus faecalis (setting [10]). In addition, the MIC in the assay on Enterococcus faecium (setting [11]) was determined as 32 µg/mL (≈ 62.8 µM). In assay [1], this molecule gave an IC50 of over 60 µM. For the same molecule, the Ratio with Staphylococcus aureus [2] is under 4.
Turning to `CO[C@]1(CC23CCC(NCc4ccc5c(n4)NC(=O)CO5)(CC2)CO3)Cn2c(=O)ccc3ncc(F)c1c32`, the MIC in the assay with Escherichia coli (setting [5]) is 32 µg/mL (≈ 61.4 µM); in the assay on Acinetobacter baumannii (setting [6]), 32 µg/mL (≈ 61.4 µM); with Pseudomonas aeruginosa (setting [7]), 32 µg/mL (≈ 61.4 µM); in the assay with Staphylococcus aureus [3] (setting [8]), 8 µg/mL (≈ 15.3 µM); with Streptococcus pneumoniae (setting [9]), 32 µg/mL (≈ 61.4 µM); in the assay on Enterococcus faecalis (setting [10]), 32 µg/mL (≈ 61.4 µM). Further, the MIC in the assay on Enterococcus faecium (setting [11]) stood at 32 µg/mL (≈ 61.4 µM). This molecule came in with an IC50 in [1] of 24.5 µM. The Ratio in the assay with Staphylococcus aureus [2] is under 4.
Turning to `O=C1COc2ccc(CNC34CCC(CC5(O)Cn6c(=O)c(Cl)cc7ncc(F)c5c76)(CC3)OC4)nc2N1` (racemic), the MIC came to 16 µg/mL (≈ 29.5 µM) with Escherichia coli (setting [5]); 16 µg/mL (≈ 29.5 µM) in the assay with Acinetobacter baumannii (setting [6]); 32 µg/mL (≈ 59 µM) in the assay with Pseudomonas aeruginosa (setting [7]); 8 µg/mL (≈ 14.8 µM) against Haemophilus influenzae; 2 µg/mL (≈ 3.69 µM) against Moraxella catarrhalis; 2 µg/mL (≈ 3.69 µM) in the assay on Staphylococcus aureus [3] (setting [8]). The MIC was determined as 2 µg/mL (≈ 3.69 µM) with Streptococcus pneumoniae (setting [9]), 8 µg/mL (≈ 14.8 µM) with Enterococcus faecalis (setting [10]) and 32 µg/mL (≈ 59 µM) in the assay with Enterococcus faecium (setting [11]). Also, the IC50 in [1] is over 60 µM. The Ratio in the assay with Staphylococcus aureus [2] was under 4.
With `O=C1COc2ccc(CNC34CCC(C[C@]5(O)Cn6c(=O)ccc7nc(Cl)c(F)c5c76)(CC3)OC4)nc2N1`, the MIC with Escherichia coli (setting [5]) came to 32 µg/mL (≈ 59 µM); with Acinetobacter baumannii (setting [6]) it was 32 µg/mL (≈ 59 µM); in the assay on Pseudomonas aeruginosa (setting [7]) it was 32 µg/mL (≈ 59 µM); in the assay with Moraxella catarrhalis it was 4 µg/mL (≈ 7.38 µM); in the assay with Staphylococcus aureus [3] (setting [8]), 4 µg/mL (≈ 7.38 µM); in the assay with Streptococcus pneumoniae (setting [9]), 8 µg/mL (≈ 14.8 µM). Also, the values for the MIC with Enterococcus faecalis (setting [10]) and in the assay on Enterococcus faecium (setting [11]) were 16 µg/mL (≈ 29.5 µM) and 32 µg/mL (≈ 59 µM), respectively.
Consider `COc1ccc2ncc(F)c(C[C@H](O)C34CCC(NCc5ccc6c(n5)NC(=O)CO6)(CC3)CO4)c2n1`, for which the MIC is 2 µg/mL (≈ 3.93 µM) in the assay with Escherichia coli (setting [5]); 0.5 µg/mL (≈ 0.981 µM) with Acinetobacter baumannii (setting [6]); 8 µg/mL (≈ 15.7 µM) in the assay with Pseudomonas aeruginosa (setting [7]); 0.5 µg/mL (≈ 0.981 µM) with Haemophilus influenzae; 0.015 µg/mL (≈ 0.0294 µM) in the assay with Moraxella catarrhalis; 0.02 µg/mL (≈ 0.0393 µM) in the assay on Staphylococcus aureus [3] (setting [8]). For the same molecule, the results for the MIC in the assay on Streptococcus pneumoniae (setting [9]), in the assay on Enterococcus faecalis (setting [10]) and in the assay with Enterococcus faecium (setting [11]) were 0.05 µg/mL (≈ 0.0981 µM), 0.5 µg/mL (≈ 0.981 µM) and 0.5 µg/mL (≈ 0.981 µM), respectively.
In the case of `O=C1COc2ccc(CNC34CCC(CC5(O)Cn6c(=O)cc(Cl)c7ncc(F)c5c76)(CC3)OC4)nc2N1` (racemic), the MIC with Escherichia coli (setting [5]) worked out at 8 µg/mL (≈ 14.8 µM); with Acinetobacter baumannii (setting [6]) it was 8 µg/mL (≈ 14.8 µM); in the assay with Pseudomonas aeruginosa (setting [7]), 32 µg/mL (≈ 59 µM); in the assay on Haemophilus influenzae, 8 µg/mL (≈ 14.8 µM); in the assay with Moraxella catarrhalis, 1 µg/mL (≈ 1.85 µM); in the assay on Staphylococcus aureus [3] (setting [8]), 2 µg/mL (≈ 3.69 µM). Also, the results for the MIC in the assay with Streptococcus pneumoniae (setting [9]), with Enterococcus faecalis (setting [10]) and with Enterococcus faecium (setting [11]) were 2 µg/mL (≈ 3.69 µM), 8 µg/mL (≈ 14.8 µM) and 32 µg/mL (≈ 59 µM), respectively. Also, the 50% inhibitory concentration (IC50) in assay [1] is over 60 µM. Further, the Ratio in the assay on Staphylococcus aureus [2] was under 4.
Regarding `CO[C@@]1(CC23CCC(NCc4ccc5c(n4)NC(=O)CO5)(CC2)CO3)Cn2c(=O)ccc3ncc(F)c1c32`, the MIC with Escherichia coli (setting [5]) came out at 32 µg/mL (≈ 61.4 µM); in the assay with Acinetobacter baumannii (setting [6]), 16 µg/mL (≈ 30.7 µM); in the assay on Pseudomonas aeruginosa (setting [7]) it was 32 µg/mL (≈ 61.4 µM); in the assay on Staphylococcus aureus [3] (setting [8]), 4 µg/mL (≈ 7.67 µM); in the assay with Streptococcus pneumoniae (setting [9]), 2 µg/mL (≈ 3.83 µM); with Enterococcus faecalis (setting [10]) it was 8 µg/mL (≈ 15.3 µM). In addition, the MIC with Enterococcus faecium (setting [11]) was found to be 32 µg/mL (≈ 61.4 µM). This molecule returned an IC50 in assay [1] of 7.3 µM. For the same molecule, the Ratio in the assay on Staphylococcus aureus [2] is recorded as under 4.
For the molecule `O=C1COc2ccc(CNC34CCC(C[C@@]5(O)Cn6c(=O)ccc7ncc(Cl)c5c76)(CC3)OC4)nc2N1`, the MIC was determined as 32 µg/mL (≈ 61.1 µM) with Escherichia coli (setting [5]); 32 µg/mL (≈ 61.1 µM) in the assay on Acinetobacter baumannii (setting [6]); 32 µg/mL (≈ 61.1 µM) in the assay with Pseudomonas aeruginosa (setting [7]); 4 µg/mL (≈ 7.63 µM) in the assay on Staphylococcus aureus [3] (setting [8]); 4 µg/mL (≈ 7.63 µM) with Streptococcus pneumoniae (setting [9]); 16 µg/mL (≈ 30.5 µM) with Enterococcus faecalis (setting [10]). In the assay with Enterococcus faecium (setting [11]), the MIC amounted to 32 µg/mL (≈ 61.1 µM). Further, the IC50 in assay [1] was over 60 µM. Also, the Ratio in the assay on Staphylococcus aureus [2] was under 4.
Turning to `O=C1COc2ccc(CNC34CCC(CC5Cn6c(=O)ccc7ncc(F)c5c76)(CC3)OC4)nc2N1` (stereo in doubt; 10), the MIC worked out at 2 µg/mL (≈ 4.07 µM) with Escherichia coli; 8 µg/mL (≈ 16.3 µM) in the assay on Acinetobacter baumannii; 16 µg/mL (≈ 32.6 µM) in the assay with Pseudomonas aeruginosa; 0.5 µg/mL (≈ 1.02 µM) against Staphylococcus aureus [3]; 0.5 µg/mL (≈ 1.02 µM) against Streptococcus pneumoniae; 2 µg/mL (≈ 4.07 µM) in the assay on Enterococcus faecalis. The molecule also returned an MIC against Enterococcus faecium of 4 µg/mL (≈ 8.14 µM). For the same molecule, the IC50 turned out to be 12.3 µM in assay [1] and 21.6 µM in [4].
